Assay results reported in ChEMBL document CHEMBL1201862, “PubChem BioAssay data set” (2004).
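Tested at 5 concentrations; 48 h exposure; 96-well plates; endpoints linearly interpolated, else capped at highest concentration. GI50 is the concentration that inhibits growth by half.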 Activity calls are given as the source filed them. Rule as the data show it: active = GI50 up to about 1.1 µM and inactive = higher.

What was measured:
Assay in all cases: growth of human tumour cells (NCI), 48 h
A498 = test system: A498
A549 = test system: A549
ACHN = test system: ACHN
COLO 205 = test system: COLO 205
HCT-116 = test system: HCT-116
HOP-62 = test system: HOP-62
IGROV-1 = test system: IGROV-1
M14 = test system: M14
MOLT-4 = test system: MOLT-4
NCI-H226 = test system: NCI-H226
OVCAR-3 = test system: OVCAR-3
PC-3 = test system: PC-3
SF-268 = test system: SF-268
SF-295 = test system: SF-295
SF-539 = test system: SF-539
SK-MEL-5 = test system: SK-MEL-5
SK-OV-3 = test system: SK-OV-3
SN12C = test system: SN12C
MCF7 = test system: MCF7

Measured: GI50

O=CCC1CCCCC1
inactive: A498 > 100 µM | A549 > 100 µM | ACHN > 100 µM | COLO 205 > 100 µM | HCT-116 > 100 µM | HOP-62 > 100 µM | IGROV-1 > 100 µM | M14 > 100 µM | MOLT-4 > 100 µM | NCI-H226 > 100 µM | OVCAR-3 > 100 µM | PC-3 > 100 µM | SF-268 > 100 µM | SF-295 > 100 µM | SF-539 > 100 µM | SK-MEL-5 > 100 µM | SK-OV-3 > 100 µM | SN12C > 100 µM

O=c1oc2ccc3ccccc3c2cc1-c1cn2ccccc2n1
inactive: A549 24.7 µM | ACHN 22.6 µM | COLO 205 > 100 µM | HCT-116 14.9 µM | HOP-62 52.6 µM | IGROV-1 > 100 µM | M14 > 100 µM | MOLT-4 > 100 µM | NCI-H226 > 100 µM | OVCAR-3 > 100 µM | PC-3 > 100 µM | SF-268 80.5 µM | SF-295 37.2 µM | SF-539 25.9 µM | SK-MEL-5 > 100 µM | SK-OV-3 39.4 µM | SN12C 48.1 µM

CCN(C(=S)N[C@@H](Cc1ccccc1)C(=O)N[C@@H](CC(C)C)C(=O)OC)c1ccccc1
inactive: A549 78.2 µM | ACHN 47.3 µM | COLO 205 49.2 µM | HCT-116 75 µM | HOP-62 > 100 µM | IGROV-1 50.4 µM | M14 > 100 µM | MCF7 34 µM | MOLT-4 23.4 µM | NCI-H226 > 100 µM | OVCAR-3 > 100 µM | PC-3 63.1 µM | SF-295 > 100 µM | SF-539 > 100 µM | SK-MEL-5 > 100 µM | SK-OV-3 > 100 µM | SN12C > 100 µM

CC(C)(C)OC(=O)NC(Cc1ccccc1)NC(=O)NC(=O)OCc1ccccc1 (stereo not given)
inactive: A549 70.8 µM | ACHN 39.1 µM | HCT-116 19.2 µM | HOP-62 31.3 µM | IGROV-1 > 100 µM | M14 57.7 µM | MCF7 > 100 µM | MOLT-4 > 100 µM | NCI-H226 28.3 µM | OVCAR-3 42.2 µM | PC-3 18.7 µM | SF-268 40.3 µM | SF-295 36.6 µM | SF-539 25.7 µM | SK-MEL-5 26.7 µM | SK-OV-3 54.6 µM | SN12C > 100 µM

NC1CC(=O)c2cc(Cl)sc21 (stereo not given)
inactive: A549 > 100 µM | ACHN > 100 µM | COLO 205 > 100 µM | HCT-116 > 100 µM | HOP-62 > 100 µM | IGROV-1 > 100 µM | M14 > 100 µM | NCI-H226 > 100 µM | OVCAR-3 > 100 µM | PC-3 > 100 µM | SF-268 > 100 µM | SF-295 > 100 µM | SF-539 > 100 µM | SK-MEL-5 > 100 µM | SK-OV-3 > 100 µM | SN12C > 100 µM
